Peptide text beside a SMILES is read from it.
Target: T1, Ptr2p (Saccharomyces cerevisiae, UniProt P32901)
T1 sequence (P32901 1-601): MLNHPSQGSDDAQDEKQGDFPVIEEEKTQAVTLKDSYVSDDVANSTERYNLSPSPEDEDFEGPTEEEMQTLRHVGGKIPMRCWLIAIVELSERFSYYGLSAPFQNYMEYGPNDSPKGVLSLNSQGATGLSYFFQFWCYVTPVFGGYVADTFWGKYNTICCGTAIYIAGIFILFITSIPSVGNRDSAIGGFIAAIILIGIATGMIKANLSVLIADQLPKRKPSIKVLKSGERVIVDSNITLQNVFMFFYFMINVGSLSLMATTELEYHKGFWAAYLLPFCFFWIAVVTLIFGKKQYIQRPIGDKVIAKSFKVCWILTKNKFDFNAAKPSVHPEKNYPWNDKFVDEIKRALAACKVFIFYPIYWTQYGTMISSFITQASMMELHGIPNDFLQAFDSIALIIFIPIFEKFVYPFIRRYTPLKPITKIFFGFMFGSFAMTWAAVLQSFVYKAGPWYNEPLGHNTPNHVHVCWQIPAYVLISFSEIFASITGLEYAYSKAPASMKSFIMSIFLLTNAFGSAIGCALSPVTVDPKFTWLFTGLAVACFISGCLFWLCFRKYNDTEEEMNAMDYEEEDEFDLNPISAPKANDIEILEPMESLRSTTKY
Experiment: Fluorescence-based competitive uptake
Type: cell-based

Compound | Ki [µM] | further results
C[C@H](N)C(=O)N[C@@H](C)C(=O)O [N-terminal A, C-terminal A, Ala–Ala] (H-Ala-Ala-OH; N-terminus and C-terminus assumed) | 400 | 
β-Ala–Lys (AMCA) [reference compound] |  | Km (read-out: Km of β-Ala–Lys (AMCA) uptake, SC-Ptr2p cells, (±s.d.)): 160 µM
CC(C)C[C@H](NC(=O)CN)C(=O)O [N-terminal G, C-terminal L, Gly-Leu] | 600 | 
NCC(=O)NCC(=O)NCC(=O)O [Gly–Gly–Gly] (H-Gly-Gly-Gly-OH; N-terminus and C-terminus assumed) | 48000 | 
N[C@@H](Cc1c[nH]c2ccccc12)C(=O)N[C@@H](Cc1ccccc1)C(=O)O [N-terminal W, C-terminal F, Trp-Phe] (H-Trp-Phe-OH) | 20 | 
CC(C)C[C@H](N)C(=O)N[C@@H](Cc1c[nH]cn1)C(=O)O [N-terminal L, C-terminal H, Leu-His] (H-Leu-His-OH; N-terminus and C-terminus assumed) | 130 | 
carnosine [reference compound] |  | competitive inhibition of β-Ala–Lys (AMCA) uptake (SC-Ptr2p cells): inhibited

Continued, in another order:

Ki [µM] | Compound | further results
310 | CC(C)C[C@H](NC(=O)[C@H](C)N)C(=O)O [N-terminal A, C-terminal L, Ala–Leu] (H-Ala-Leu-OH; N-terminus and C-terminus assumed) | 
50 | CC(C)C[C@H](NC(=O)[C@@H](N)Cc1c[nH]cn1)C(=O)O [N-terminal H, C-terminal L, His–Leu] (H-His-Leu-OH; N-terminus and C-terminus assumed) | 
360 | CC(C)C[C@H](N)C(=O)NCC(=O)O [N-terminal L, C-terminal G, Leu-Gly] (H-Leu-Gly-OH; N-terminus and C-terminus assumed) | 
